Results on 40 molecules are retold here after US10343992B2, “1-cyano-pyrrolidine compounds as USP30 inhibitors” (MISSION THERAPEUTICS LIMITED, priority 2015, dated 2019).

The target of the test is USP30 (Homo sapiens (Human), UniProt Q70CQ3). Nature of the test: USP30 biochemical FP or FI IC50 assay. To be noted: read-out: IC50 range. Put shortly: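 Human USP30 preincubated 30 min at room temperature with compound (8-point series, 100 µM top final) in Tris pH 7.5, Tween 20, BSA, 5 mM β-mercaptoethanol, in duplicate. FP format: 50 nM TAMRA-peptide–isopeptide-ubiquitin substrate, ex 540/em 590. FI format: 100 nM ubiquitin-rhodamine 110, ex 487/em 535. Both read at 0 and after 2 h at room temperature.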
Chain of USP30 (Q70CQ3 57-517): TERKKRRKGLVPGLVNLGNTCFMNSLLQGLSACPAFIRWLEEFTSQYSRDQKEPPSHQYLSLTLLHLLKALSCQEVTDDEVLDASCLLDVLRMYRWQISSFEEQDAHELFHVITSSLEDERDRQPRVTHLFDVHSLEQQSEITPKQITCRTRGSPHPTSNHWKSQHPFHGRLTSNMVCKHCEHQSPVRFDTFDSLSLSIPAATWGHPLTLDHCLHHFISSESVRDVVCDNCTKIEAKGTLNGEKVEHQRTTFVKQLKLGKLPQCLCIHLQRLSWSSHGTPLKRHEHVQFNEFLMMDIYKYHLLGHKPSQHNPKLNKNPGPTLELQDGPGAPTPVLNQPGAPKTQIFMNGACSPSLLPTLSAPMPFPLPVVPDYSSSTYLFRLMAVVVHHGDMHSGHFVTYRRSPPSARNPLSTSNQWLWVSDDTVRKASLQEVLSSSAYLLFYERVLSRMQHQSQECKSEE
`Cn1cc(C2CCN(C(=O)N[C@@H]3CCN(C#N)C3)C2)cn1` (stereo partly drawn) [Example 226, N-((R)-1-cyanopyrrolidin-3-yl)-3-(1-methyl-1H-pyrazol-4-yl)pyrrolidine-1-carboxamide]: the IC50 is 1000 to 10000 nM. Under `CN(c1ccc(C(=O)N[C@@H]2CCN(C#N)C2)c(F)c1)S(=O)(=O)c1ccccc1` [Example 228, (R)-N-(1-cyanopyrrolidin-3-yl)-2-fluoro-4-(N-methylphenylsulfonamido)benzamide] stands 100 to 1000 nM; under `Cn1cc(-c2ccc3cc(C(=O)N[C@@H]4CCN(C#N)C4)n(C)c3c2)cn1` [Example 229, (R)-N-(1-cyanopyrrolidin-3-yl)-1-methyl-6-(1-methyl-1H-pyrazol-4-yl)-1H-indole-2-carboxamide], 100 to 1000 nM. Under `CN(C(=O)Nc1ccnc(N2Cc3ccccc3C2)c1)[C@@H]1CCN(C#N)C1` [Example 231, (R)-1-(1-cyanopyrrolidin-3-yl)-3-(2-(isoindolin-2-yl)pyridin-4-yl)-1-methylurea] stands 100 to 1000 nM.

Consider `Cn1cc(-c2ccc3c(c2)c(F)c(C(=O)N[C@@H]2CCN(C#N)C2)n3C)cn1` [Example 232, (R)-N-(1-cyanopyrrolidin-3-yl)-3-fluoro-1-methyl-5-(1-methyl-1H-pyrazol-4-yl)-1H-indole-2-carboxamide], for which the IC50 is under 100 nM. Regarding `Cn1cc(-c2ccn3c(C(=O)N[C@@H]4CCN(C#N)C4)ncc3c2)cn1` [Example 233, (R)-N-(1-cyanopyrrolidin-3-yl)-7-(1-methyl-1H-pyrazol-4-yl)imidazo[1,5-a]pyridine-3-carboxamide], the IC50 lay within 100 to 1000 nM. `N#CN1CC[C@@H](NC(=O)N2CC(c3ccn(-c4ccccc4)n3)C2)C1` [Example 234, (R)-N-(1-cyanopyrrolidin-3-yl)-3-(1-phenyl-1H-pyrazol-3-yl)azetidine-1-carboxamide]: the half-maximal inhibitory concentration (IC50) is under 100 nM. As to `N#CN1CC[C@@H](NC(=O)N2CC(c3ccn(-c4cnccn4)n3)C2)C1` [Example 235, (R)-N-(1-cyanopyrrolidin-3-yl)-3-(1-(pyrazin-2-yl)-1H-pyrazol-3-yl)azetidine-1-carboxamide], the 50% inhibitory concentration (IC50) lay within 100 to 1000 nM. In the case of `N#CN1CC[C@@H](NC(=O)N2CC(c3ccnc(-c4ccccc4)n3)C2)C1` [Example 236, (R)-N-(1-cyanopyrrolidin-3-yl)-3-(2-phenylpyrimidin-4-yl)azetidine-1-carboxamide], the IC50 was in the range of 100 to 1000 nM.

As for `N#CN1CC[C@@H](NC(=O)N2CC(c3ccnc(-c4ccc(Cl)cc4)n3)C2)C1` [Example 237, (R)-3-(2-(4-chlorophenyl)pyrimidin-4-yl)-N-(1-cyanopyrrolidin-3-yl)azetidine-1-carboxamide], the IC50 is under 100 nM. Under `N#CN1CC[C@@H](NC(=O)N2CC(OCc3ccccc3)(c3ccccc3)C2)C1` [Example 238, (R)-3-(benzyloxy)-N-(1-cyanopyrrolidin-3-yl)-3-phenylazetidine-1-carboxamide] stands under 100 nM. Under `N#CN1CC[C@@H](NC(=O)c2ccc3c(c2)CCN3c2nccc(C3CC3)n2)C1` [Example 239, (R)-N-(1-cyanopyrrolidin-3-yl)-1-(4-cyclopropylpyrimidin-2-yl)indoline-5-carboxamide] stands under 100 nM; under `CN(C(=O)c1ccc2c(c1)CCN2c1nccc(C2CC2)n1)[C@@H]1CCN(C#N)C1` [Example 240, (R)-N-(1-cyanopyrrolidin-3-yl)-1-(4-cyclopropylpyrimidin-2-yl)-N-methylindoline-5-carboxamide], under 100 nM. Under `Cc1cc(-c2cccc(NC(=O)N3CC[C@@H]4CN(C#N)C[C@@H]43)c2)ccn1` [Example 241, (3aR,6aR)-5-cyano-N-(3-(2-methylpyridin-4-yl)phenyl)hexahydropyrrolo[3,4-b]pyrrole-1(2H)-carboxamide] stands under 100 nM; under `Cc1cc(-c2ccc(NC(=O)N3CC[C@@H]4CN(C#N)C[C@@H]43)cc2)ccn1` [Example 242, (3aR,6aR)-5-cyano-N-(4-(2-methylpyridin-4-yl)phenyl)hexahydropyrrolo[3,4-b]pyrrole-1(2H)-carboxamide], under 100 nM. Take `Cc1cc(-c2ccc(NC(=O)N3CC[C@@H]4CN(C#N)C[C@@H]43)c(F)c2)ccn1` [Example 243, (3aR,6aR)-5-cyano-N-(2-fluoro-4-(2-methylpyridin-4-yl)phenyl)hexahydropyrrolo[3,4-b]pyrrole-1(2H)-carboxamide]: the IC50 lay within 100 to 1000 nM.

Regarding `Cc1cc(-c2ccc(NC(=O)N3CC[C@@H]4CN(C#N)C[C@@H]43)nc2)ccn1` [Example 244, (3aR,6aR)-5-cyano-N-(2′-methyl-[3,4′-bipyridin]-6-yl)hexahydropyrrolo[3,4-b]pyrrole-1(2H)-carboxamide], the 50% inhibitory concentration (IC50) is under 100 nM. Under `Cn1cc(-c2ccc(NC(=O)N3CC[C@@H]4CN(C#N)C[C@@H]43)c(F)c2)cn1` [Example 245, (3aR,6aR)-5-cyano-N-(2-fluoro-4-(1-methyl-1H-pyrazol-4-yl)phenyl)hexahydropyrrolo[3,4-b]pyrrole-1(2H)-carboxamide] stands 100 to 1000 nM. Under `N#CN1C[C@H]2CCN(C(=O)N3CC(Oc4ccccc4)C3)[C@H]2C1` [Example 247, (3aR,6aR)-1-(3-phenoxyazetidine-1-carbonyl)hexahydropyrrolo[3,4-b]pyrrole-5(1H)-carbonitrile] stands 100 to 1000 nM; under `N#CN1CCCC(NC(=O)c2cccc(-c3ccccc3)c2)C1` (stereo not shown) [Example 248, N-(1-cyanopiperidin-3-yl)-[1,1′-biphenyl]-3-carboxamide], 1000 to 10000 nM. Under `N#CN1CCCC(NC(=O)Nc2cccc(Oc3ccccc3)c2)C1` (stereo not shown) [Example 250, 1-(1-cyanopiperidin-3-yl)-3-(3-phenoxyphenyl)urea] stands 1000 to 10000 nM; under `N#CN1CCC(NC(=O)Nc2ccc(Cl)cc2Cl)C1` (stereo not shown) [Example 251, 1-(1-cyanopyrrolidin-3-yl)-3-(2,4-dichlorophenyl)urea], 100 to 1000 nM. As to `N#CN1CCC(NC(=O)Nc2ccc(C(F)(F)F)cc2)C1` (stereo not shown) [Example 252, 1-(1-cyanopyrrolidin-3-yl)-3-(4-(trifluoromethyl)phenyl)urea], the IC50 lay within 100 to 1000 nM. On to `N#CN1CCC(NC(=O)Nc2cccc(Cc3ccccc3)c2)C1` (stereo not shown) [Example 253, 1-(3-benzylphenyl)-3-(1-cyanopyrrolidin-3-yl)urea], for which the IC50 lay within 100 to 1000 nM.

Take `N#CN1CCC(NC(=O)Nc2cccc(Oc3ccccc3)c2)C1` (stereo not shown) [Example 255, 1-(1-cyanopyrrolidin-3-yl)-3-(3-phenoxyphenyl)urea]: the IC50 is under 100 nM. Under `CN(C(=O)Nc1cccc(Cc2ccccc2)c1)C1CCN(C#N)C1` (stereo not shown) [Example 256, 3-(3-benzylphenyl)-1-(1-cyanopyrrolidin-3-yl)-1-methylurea] stands 100 to 1000 nM. Under `CN(C(=O)Nc1cccc(Cl)c1)C1CCN(C#N)C1` (stereo not shown) [Example 257, 3-(3-chlorophenyl)-1-(1-cyanopyrrolidin-3-yl)-1-methylurea] stands 100 to 1000 nM; under `CN(C(=O)Nc1cccc(Oc2ccccc2)c1)C1CCN(C#N)C1` (stereo not shown) [Example 258, 1-(1-cyanopyrrolidin-3-yl)-1-methyl-3-(3-phenoxyphenyl)urea], under 100 nM; under `CN(C(=O)Nc1ccc(-c2ccccc2)cc1)C1CCN(C#N)C1` (stereo not shown) [Example 259, 3-([1,1′-biphenyl]-4-yl)-1-(1-cyanopyrrolidin-3-yl)-1-methylurea], under 100 nM. As for `CN(C(=O)Nc1ccc(Cl)cc1Cl)C1CCN(C#N)C1` (stereo not shown) [Example 260, 1-(1-cyanopyrrolidin-3-yl)-3-(2,4-dichlorophenyl)-1-methylurea], the half-inhibitory concentration (IC50) lay in the range of 100 to 1000 nM.

Turning to `CN(C(=O)Nc1ccc(C(F)(F)F)cc1)C1CCN(C#N)C1` (stereo not shown) [Example 261, 1-(1-cyanopyrrolidin-3-yl)-1-methyl-3-(4-(trifluoromethyl)phenyl)urea], the IC50 was 100 to 1000 nM. Take `CN(C(=O)c1cc2cc(-c3cnn(C)c3)ncc2[nH]1)[C@@H]1CCN(C#N)C1` [Example 263, (R)-N-(1-cyanopyrrolidin-3-yl)-N-methyl-5-(1-methyl-1H-pyrazol-4-yl)-1H-pyrrolo[2,3-c]pyridine-2-carboxamide]: the 50% inhibitory concentration (IC50) lay within 100 to 1000 nM. For the molecule `CN(C(=O)N1CCOC(c2ccccc2)C1)[C@@H]1CCN(C#N)C1` (stereo partly drawn) [Example 264, N-((R)-1-cyanopyrrolidin-3-yl)-N-methyl-2-phenylmorpholine-4-carboxamide], the concentration for half-maximal inhibition (IC50) is 100 to 1000 nM. Under `CN(C(=O)N1CCc2ccccc21)[C@@H]1CCN(C#N)C1` [Example 265, (R)-N-(1-cyanopyrrolidin-3-yl)-N-methylindoline-1-carboxamide] stands 1000 to 10000 nM. For the molecule `CN(C(=O)Nc1ccc(C(F)(F)F)nc1)[C@@H]1CCN(C#N)C1` [Example 266, (R)-1-(1-cyanopyrrolidin-3-yl)-1-methyl-3-(6-(trifluoromethyl)pyridin-3-yl)urea], the concentration for half-maximal inhibition (IC50) is 100 to 1000 nM. As for `CN(C(=O)Nc1ccc(Cl)cn1)[C@@H]1CCN(C#N)C1` [Example 267, (R)-3-(5-chloropyridin-2-yl)-1-(1-cyanopyrrolidin-3-yl)-1-methylurea], the IC50 was in the range of 100 to 1000 nM. Under `N#CN1C[C@H]2CCN(C(=O)c3ccc(N4CCOCC4)c(Cl)c3)[C@H]2C1` [Example 268, (3aR,6aR)-1-(3-chloro-4-morpholinobenzoyl)hexahydro-pyrrolo[3,4-b]pyrrole-5(1H)-carbonitrile] stands 100 to 1000 nM; under `Cc1cc(-c2cc(C(=O)N[C@@H]3CCN(C#N)C3)on2)ccn1` [Example 270, (R)-N-(1-cyanopyrrolidin-3-yl)-3-(2-methylpyridin-4-yl)isoxazole-5-carboxamide], 100 to 1000 nM. `Cc1ccc(-c2cc(C(=O)N[C@@H]3CCN(C#N)C3)on2)cc1C` [Example 271, (R)-N-(1-cyanopyrrolidin-3-yl)-3-(3,4-dimethylphenyl)isoxazole-5-carboxamide]: the IC50 was under 100 nM.

In the case of `N#CN1CC[C@@H](NC(=O)c2cc(-c3ccc(F)cc3F)no2)C1` [Example 272, (R)-N-(1-cyanopyrrolidin-3-yl)-3-(2,4-difluorophenyl)isoxazole-5-carboxamide], the half-maximal inhibitory concentration (IC50) was under 100 nM.

By IC50 is commonly meant the concentration at which inhibition is half-maximal.
